In ChEMBL document CHEMBL3046559, “Sterile oat (Avena sterilis L.) cross-resistance profile to ACCase-inhibiting herbicides in Greece” (2012):

Key:
Type in all cases: functional
[1] = system: Avena sterilis; assay: Herbicidal activity against Avena sterilis accession P12 assessed as weed survival at 1 times field recommended herbicide dose
[2] = system: Avena sterilis; assay: Herbicidal activity against Avena sterilis accession P10S assessed as induction of weed mortality
[3] = system: Avena sterilis; assay: Herbicidal activity against Avena sterilis accession P06S assessed as weed survival at 1/32 times field recommended herbicide dose
[4] = system: Avena sterilis; assay: Herbicidal activity against Avena sterilis accession P20 assessed as weed survival at 16 times field recommended herbicide dose
[5] = system: Avena sterilis; assay: Herbicidal activity against Avena sterilis accession P14 assessed as induction of weed mortality
[6] = system: Avena sterilis; assay: Herbicidal activity against Avena sterilis accession P18 assessed as induction of weed mortality
[7] = system: Avena sterilis; assay: Herbicidal activity against Avena sterilis accession P19S assessed as induction of weed mortality
[8] = system: Avena sterilis; assay: Herbicidal activity against Avena sterilis accession P15 assessed as weed survival at 16 times field recommended herbicide dose
[9] = system: Avena sterilis; assay: Herbicidal activity against Avena sterilis accession P21S assessed as weed survival at 1/4 times field recommended herbicide dose
[10] = system: Avena sterilis; assay: Herbicidal activity against Avena sterilis accession P05 assessed as induction of weed mortality
[11] = system: Avena sterilis; assay: Herbicidal activity against Avena sterilis accession P12 assessed as weed survival at 32 times field recommended herbicide dose
[12] = system: Avena sterilis; assay: Herbicidal activity against Avena sterilis accession P12 assessed as induction of weed mortality
[13] = system: Avena sterilis; assay: Herbicidal activity against Avena sterilis accession P07 assessed as weed survival at 16 times field recommended herbicide dose
[14] = system: Avena sterilis; assay: Herbicidal activity against Avena sterilis accession P03 assessed as weed survival at 8 times field recommended herbicide dose
[15] = system: Avena sterilis; assay: Herbicidal activity against Avena sterilis accession P16 assessed as weed survival at 4 times field recommended herbicide dose
[16] = system: Avena sterilis; assay: Herbicidal activity against Avena sterilis accession P09 assessed as weed survival at 16 times field recommended herbicide dose
[17] = system: Avena sterilis; assay: Herbicidal activity against Avena sterilis accession P05 assessed as weed survival at 1 times field recommended herbicide dose
[18] = system: Avena sterilis; assay: Herbicidal activity against Avena sterilis accession P17 assessed as weed survival at 1 times field recommended herbicide dose
[19] = system: Avena sterilis; assay: Herbicidal activity against Avena sterilis accession P22 assessed as weed survival at 32 times field recommended herbicide dose
[20] = system: Avena sterilis; assay: Herbicidal activity against Avena sterilis accession P21S assessed as induction of weed mortality
[21] = system: Avena sterilis; assay: Herbicidal activity against Avena sterilis accession P01 assessed as weed survival at 1 times field recommended herbicide dose
[22] = system: Avena sterilis; assay: Herbicidal activity against Avena sterilis accession P02 assessed as weed survival at 32 times field recommended herbicide dose
[23] = system: Avena sterilis; assay: Herbicidal activity against Avena sterilis accession P06S assessed as weed survival at 1/8 times field recommended herbicide dose
[24] = system: Avena sterilis; assay: Herbicidal activity against Avena sterilis accession P15 assessed as induction of weed mortality
[25] = system: Avena sterilis; assay: Herbicidal activity against Avena sterilis accession P17 assessed as induction of weed mortality
[26] = system: Avena sterilis; assay: Herbicidal activity against Avena sterilis accession P17 assessed as weed survival at 8 times field recommended herbicide dose
[27] = system: Avena sterilis; assay: Herbicidal activity against Avena sterilis accession P10S assessed as weed survival at 1/32 times field recommended herbicide dose
[28] = system: Avena sterilis; assay: Herbicidal activity against Avena sterilis accession P04 assessed as induction of weed mortality
[29] = system: Avena sterilis; assay: Herbicidal activity against Avena sterilis accession P15 assessed as weed survival at 32 times field recommended herbicide dose
[30] = system: Avena sterilis; assay: Herbicidal activity against Avena sterilis accession P21S assessed as weed survival at 1/16 times field recommended herbicide dose
[31] = system: Avena sterilis; assay: Herbicidal activity against Avena sterilis accession P07 assessed as weed survival at 32 times field recommended herbicide dose
[32] = system: Avena sterilis; assay: Herbicidal activity against Avena sterilis accession P05 assessed as weed survival at 32 times field recommended herbicide dose
[33] = system: Avena sterilis; assay: Herbicidal activity against Avena sterilis accession P14 assessed as weed survival at 16 times field recommended herbicide dose
[34] = system: Avena sterilis; assay: Herbicidal activity against Avena sterilis accession P13S assessed as weed survival at 1/16 times field recommended herbicide dose
[35] = system: Avena sterilis; assay: Herbicidal activity against Avena sterilis accession P21S assessed as weed survival at 1/8 times field recommended herbicide dose
[36] = system: Avena sterilis; assay: Herbicidal activity against Avena sterilis accession P03 assessed as induction of weed mortality
[37] = system: Avena sterilis; assay: Herbicidal activity against Avena sterilis accession P06S assessed as induction of weed mortality
[38] = system: Avena sterilis; assay: Herbicidal activity against Avena sterilis accession P07 assessed as weed survival at 1 times field recommended herbicide dose
[39] = system: Avena sterilis; assay: Herbicidal activity against Avena sterilis accession P10S assessed as weed survival at 1 times field recommended herbicide dose
[40] = system: Avena sterilis; assay: Herbicidal activity against Avena sterilis accession P22 assessed as weed survival at 16 times field recommended herbicide dose
[41] = system: Avena sterilis; assay: Herbicidal activity against Avena sterilis accession P18 assessed as weed survival at 4 times field recommended herbicide dose
[42] = system: Avena sterilis; assay: Herbicidal activity against Avena sterilis accession P22 assessed as induction of weed mortality
[43] = system: Avena sterilis; assay: Herbicidal activity against Avena sterilis accession P17 assessed as weed survival at 16 times field recommended herbicide dose
[44] = system: Avena sterilis; assay: Herbicidal activity against Avena sterilis accession P12 assessed as weed survival at 8 times field recommended herbicide dose
[45] = system: Avena sterilis; assay: Herbicidal activity against Avena sterilis accession P11 assessed as weed survival at 16 times field recommended herbicide dose
[46] = system: Avena sterilis; assay: Herbicidal activity against Avena sterilis accession P15 assessed as weed survival at 1 times field recommended herbicide dose
[47] = system: Avena sterilis; assay: Herbicidal activity against Avena sterilis accession P01 assessed as weed survival at 16 times field recommended herbicide dose
[48] = system: Avena sterilis; assay: Herbicidal activity against Avena sterilis accession P17 assessed as weed survival at 4 times field recommended herbicide dose
[49] = system: Avena sterilis; assay: Herbicidal activity against Avena sterilis accession P18 assessed as weed survival at 16 times field recommended herbicide dose
[50] = system: Avena sterilis; assay: Herbicidal activity against Avena sterilis accession P03 assessed as weed survival at 16 times field recommended herbicide dose
[51] = system: Avena sterilis; assay: Herbicidal activity against Avena sterilis accession P21S assessed as weed survival at 1 times field recommended herbicide dose
[52] = system: Avena sterilis; assay: Herbicidal activity against Avena sterilis accession P19S assessed as weed survival at 1/8 times field recommended herbicide dose
[53] = system: Avena sterilis; assay: Herbicidal activity against Avena sterilis accession P18 assessed as weed survival at 1 times field recommended herbicide dose
[54] = system: Avena sterilis; assay: Herbicidal activity against Avena sterilis accession P09 assessed as weed survival at 1 times field recommended herbicide dose
[55] = system: Avena sterilis; assay: Herbicidal activity against Avena sterilis accession P08 assessed as weed survival at 32 times field recommended herbicide dose
[56] = system: Avena sterilis; assay: Herbicidal activity against Avena sterilis accession P04 assessed as weed survival at 4 times field recommended herbicide dose
[57] = system: Avena sterilis; assay: Herbicidal activity against Avena sterilis accession P18 assessed as weed survival at 32 times field recommended herbicide dose
[58] = system: Avena sterilis; assay: Herbicidal activity against Avena sterilis accession P05 assessed as weed survival at 8 times field recommended herbicide dose

`COC(=O)C(C)Oc1ccc(Oc2ccc(Cl)cc2Cl)cc1` (stereo unspecified) [DICLOFOP-METHYL] showed a Survival [1] of 80%, a GR50 [2] of 506 gAi/ha and a Survival [3] of 100%. It also gave a Survival [4] of 80%, a GR50 [5] of 11045 gAi/ha and a GR50 [6] of 10199 gAi/ha. The GR50 [7] was 451 gAi/ha, the Survival [8] was 83% and the Survival [9] was 83%. The GR50 [10] was 4859 gAi/ha, the Survival [11] was 63% and the GR50 [12] was >22740 gAi/ha. The Survival [13] was 20%, the Survival [14] was 60% and the Survival [15] was 60%. It also gave a Survival [16] of 53%, a Survival [17] of 100% and a Survival [18] of 93%. For the same molecule, the Survival [19] was 20%, the GR50 [20] was 418 gAi/ha and the Survival [21] was 90%. The Survival [22] was 53%, the Survival [23] was 90% and the GR50 [24] was >22740 gAi/ha. The GR50 [25] was 8389 gAi/ha, the Survival [26] was 60% and the Survival [27] was 100%. The GR50 [28] was 14196 gAi/ha, the Survival [29] was 80% and the Survival [30] was 97%. For the same molecule, the Survival [31] was 20%, the Survival [32] was 20% and the Survival [33] was 50%. It also gave a Survival [34] of 90%, a Survival [35] of 97% and a GR50 [36] of 13359 gAi/ha. The GR50 [37] was 548 gAi/ha, the Survival [38] was 100% and the Survival [39] was 33%. It also gave a Survival [40] of 27%, a Survival [41] of 80% and a GR50 [42] of 3989 gAi/ha. It also gave a Survival [43] of 43%, a Survival [44] of 80% and a Survival [45] of 70%. It also gave a Survival [46] of 100%, a Survival [47] of 60% and a Survival [48] of 80%. It also gave a Survival [49] of 40%, a Survival [50] of 53% and a Survival [51] of 27%. For the same molecule, the Survival [52] was 100%, the Survival [53] was 100% and the Survival [54] was 100%. For the same molecule, the Survival [55] was 33%, the Survival [56] was 97% and the Survival [57] was 40%. It also gave a Survival [58] of 40%.
For `CCOC(=O)[C@@H](C)Oc1ccc(Oc2nc3ccc(Cl)cc3o2)cc1` [FENOXAPROP-P-ETHYL], the Survival [1] was 100%, the GR50 [2] was 16 gAi/ha and the Survival [3] was 97%. The Survival [4] was 83%, the GR50 [5] was 155 gAi/ha and the GR50 [6] was >2640 gAi/ha. The GR50 [7] was 31 gAi/ha, the Survival [8] was 60% and the Survival [9] was 43%. The GR50 [10] was 181 gAi/ha, the Survival [11] was 40% and the GR50 [12] was 1290 gAi/ha. The Survival [13] was 80%, the Survival [14] was 60% and the Survival [15] was 90%. The Survival [16] was 60%, the Survival [17] was 77% and the Survival [18] was 97%. The Survival [19] was 0%, the GR50 [20] was 18 gAi/ha and the Survival [21] was 97%. The Survival [22] was 40%, the Survival [23] was 80% and the GR50 [24] was 1440 gAi/ha. For the same molecule, the GR50 [25] was 303 gAi/ha, the Survival [26] was 20% and the Survival [27] was 100%. For the same molecule, the GR50 [28] was 913 gAi/ha, the Survival [29] was 23% and the Survival [30] was 83%. It also gave a Survival [31] of 70%, a Survival [32] of 0% and a Survival [33] of 20%. For the same molecule, the Survival [34] was 80%, the Survival [35] was 80% and the GR50 [36] was 860 gAi/ha. It also gave a GR50 [37] of 18 gAi/ha, a Survival [38] of 97% and a Survival [39] of 0%. It also gave a Survival [40] of 0%, a Survival [41] of 97% and a GR50 [42] of 250 gAi/ha. The Survival [43] was 20%, the Survival [44] was 53% and the Survival [45] was 57%. It also gave a Survival [46] of 100%, a Survival [47] of 23% and a Survival [48] of 40%. For the same molecule, the Survival [49] was 73%, the Survival [50] was 40% and the Survival [51] was 0%. The Survival [52] was 87%, the Survival [53] was 100% and the Survival [54] was 80%. For the same molecule, the Survival [55] was 20%, the Survival [56] was 80% and the Survival [57] was 60%. It also gave a Survival [58] of 20%.
